In experiment [1] the target is T1, human JAK2 kinase domain (JH1) (Homo sapiens, UniProt O60674).
T1 construct: recombinantly generated catalytic kinase (also known as JH1) domain of human JAK1, JAK2, JAK3 and TYK2
Description: JH1 biochemical assay for JAK2 (ADP-Glo kinase assay, recombinant JH1 catalytic domain, JAK3-974 peptide, 15 μM ATP). A digest of the protocol: (§1)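 Kinase 4 nM JAK1 / 0.2 nM JAK2 / 0.3 nM JAK3 / 2 nM TYK2; 50 μM peptide; 100 min. Unused ATP depleted, ADP→ATP, luciferase luminescence. 11-pt 3-fold series from 10 or 1 μM; normalized, 4PL fit → IC50.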
For orientation: ADP-Glo turns the ADP formed in a reaction into a luminescent signal.

Experiment [2] addresses T2, human JAK3 kinase domain (JH1) (Homo sapiens, UniProt P52333).
T2 construct: recombinantly generated catalytic kinase (also known as JH1) domain of human JAK1, JAK2, JAK3 and TYK2
Briefly: JH1 biochemical assay for JAK3 (ADP-Glo kinase assay, recombinant JH1 catalytic domain, JAK3-974 peptide, 4 μM ATP). The method, boiled down:
as §1

The target in experiment [3] is T3, human TYK2 kinase domain (JH1) (Homo sapiens, UniProt P29597).
T3 construct: recombinantly generated catalytic kinase (also known as JH1) domain of human JAK1, JAK2, JAK3 and TYK2
T3 sequence (P29597 897-1176 limits assumed): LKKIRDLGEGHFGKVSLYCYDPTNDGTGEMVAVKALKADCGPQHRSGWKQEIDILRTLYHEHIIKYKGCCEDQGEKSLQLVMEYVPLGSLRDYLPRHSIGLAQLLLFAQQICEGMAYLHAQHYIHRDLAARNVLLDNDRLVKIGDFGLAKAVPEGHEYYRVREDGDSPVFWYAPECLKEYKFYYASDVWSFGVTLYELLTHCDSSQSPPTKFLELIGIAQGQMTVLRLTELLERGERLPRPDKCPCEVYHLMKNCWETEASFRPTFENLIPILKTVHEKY
Description: JH1 biochemical assay for TYK2 (ADP-Glo kinase assay, recombinant JH1 catalytic domain, JAK3-974 peptide, 10 μM ATP). The method, boiled down: as §1

Experiment [4] addresses T4, human JAK1 kinase domain (JH1) (Homo sapiens, UniProt P23458).
T4 construct: recombinantly generated catalytic kinase (also known as JH1) domain of human JAK1, JAK2, JAK3 and TYK2
Description: JH1 biochemical assay for JAK1 (ADP-Glo kinase assay, recombinant JH1 catalytic domain, JAK3-342 peptide, 35 μM ATP). The method, boiled down:
as §1

Molecules are shown by their SMILES. Counter-ions that a name gives are not always drawn.

T2 sequence (P52333 822-1111 limits assumed): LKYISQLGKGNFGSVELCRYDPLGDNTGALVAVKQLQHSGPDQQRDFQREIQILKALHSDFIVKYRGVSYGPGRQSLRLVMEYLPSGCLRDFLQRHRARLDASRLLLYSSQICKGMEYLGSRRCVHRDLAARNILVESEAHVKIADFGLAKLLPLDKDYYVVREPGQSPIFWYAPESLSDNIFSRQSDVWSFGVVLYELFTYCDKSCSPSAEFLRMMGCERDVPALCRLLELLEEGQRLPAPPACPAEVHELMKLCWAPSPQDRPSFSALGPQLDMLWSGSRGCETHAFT
T4 sequence (P23458 875-1153 limits assumed): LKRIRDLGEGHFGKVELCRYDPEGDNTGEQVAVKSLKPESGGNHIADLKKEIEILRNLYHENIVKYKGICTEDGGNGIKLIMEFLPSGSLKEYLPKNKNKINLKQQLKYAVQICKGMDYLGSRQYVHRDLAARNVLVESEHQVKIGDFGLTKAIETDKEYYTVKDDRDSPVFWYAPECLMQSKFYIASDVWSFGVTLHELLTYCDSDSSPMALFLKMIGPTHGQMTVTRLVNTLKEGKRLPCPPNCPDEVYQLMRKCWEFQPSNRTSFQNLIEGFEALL
T1 sequence (O60674 849-1124 limits assumed): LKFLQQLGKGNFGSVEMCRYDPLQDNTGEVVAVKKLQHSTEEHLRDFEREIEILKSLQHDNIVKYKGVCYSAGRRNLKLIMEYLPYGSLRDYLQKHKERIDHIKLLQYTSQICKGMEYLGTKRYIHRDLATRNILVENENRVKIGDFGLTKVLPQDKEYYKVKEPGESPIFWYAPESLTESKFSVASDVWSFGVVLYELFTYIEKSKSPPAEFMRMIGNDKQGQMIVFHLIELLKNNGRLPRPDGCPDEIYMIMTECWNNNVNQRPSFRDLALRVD

The IC50 is the concentration that inhibits the measured activity by half. `CC[C@]1(C#N)CCN(c2ccnn3cc(-c4cnn(C)c4)cc23)C1=O` (single isomer, unassigned) [Example 42]: the 50% inhibitory concentration (IC50) in experiment [1] (JH1 kinase domain, ADP-Glo) fell in the range of 1000 to 5000 nM; in experiment [2] (JH1 kinase domain, ADP-Glo) it was 1000 to 5000 nM; in experiment [3] (JH1 kinase domain, ADP-Glo), 50 to 100 nM; in experiment [4] (JH1 kinase domain, ADP-Glo), 1000 to 5000 nM.
On to `C[C@@H]1CN(c2ccnn3cc(-c4cnc5cnccn45)cc23)C(=O)[C@]1(C#N)C1CC1` [Example 116, (3R,4S)-3-cyclopropyl-1-(6-(imidazo[1,2-a]pyrazin-3-yl)pyrrolo[1,2-b]pyridazin-4-yl)-4-methyl-2-oxopyrrolidine-3-carbonitrile trifluoroacetate], for which the concentration for half-maximal inhibition (IC50) in experiment [1] (JH1 kinase domain, ADP-Glo) was in the range of 1000 to 5000 nM; in experiment [2] (JH1 kinase domain, ADP-Glo) it was 100 to 1000 nM; in experiment [3] (JH1 kinase domain, ADP-Glo) it was 20 to 50 nM; in experiment [4] (JH1 kinase domain, ADP-Glo), 100 to 1000 nM.
As for `Cc1ncc(-c2cc3c(N4C[C@@H](C)[C@@](C#N)(C5CC5)C4=O)ccnn3c2)cn1` [Example 80, (3R,4S)-3-cyclopropyl-4-methyl-1-(6-(2-methylpyrimidin-5-yl)pyrrolo[1,2-b]pyridazin-4-yl)-2-oxopyrrolidine-3-carbonitrile], the half-maximal inhibitory concentration (IC50) was 1000 to 5000 nM in experiment [1] (JH1 kinase domain, ADP-Glo); 1000 to 5000 nM in experiment [2] (JH1 kinase domain, ADP-Glo); 50 to 100 nM in experiment [3] (JH1 kinase domain, ADP-Glo); 1000 to 5000 nM in experiment [4] (JH1 kinase domain, ADP-Glo).
`COc1cnc(-c2cc3c(N4C[C@@H](C)[C@@](C#N)(C5CC5)C4=O)ccnn3c2)nc1` [Example 136, (3R,4S)-3-cyclopropyl-1-(6-(5-methoxypyrimidin-2-yl)pyrrolo[1,2-b]pyridazin-4-yl)-4-methyl-2-oxopyrrolidine-3-carbonitrile trifluoroacetate]: the IC50 in experiment [1] (JH1 kinase domain, ADP-Glo) is 5000 to 10000 nM; in experiment [2] (JH1 kinase domain, ADP-Glo) it was 1000 to 5000 nM; in experiment [3] (JH1 kinase domain, ADP-Glo), 50 to 100 nM; in experiment [4] (JH1 kinase domain, ADP-Glo), 1000 to 5000 nM.
Take `C[C@@H]1CN(c2cc(-c3cnn(C(F)F)c3)cn3ncc(F)c23)C(=O)[C@]1(C#N)C1CC1` [Example 270, (3R,4S)-3-cyclopropyl-1-(6-(1-(difluoromethyl)-1H-pyrazol-4-yl)-3-fluoropyrazolo[1,5-a]pyridin-4-yl)-4-methyl-2-oxopyrrolidine-3-carbonitrile]: the IC50 in experiment [1] (JAK2 JH1, ADP-Glo) lay in the range of 1000 to 5000 nM; in experiment [2] (JAK3 JH1, ADP-Glo) it was 1000 to 5000 nM; in experiment [3] (TYK2 JH1, ADP-Glo), 20 to 50 nM; in experiment [4] (JAK1 JH1, ADP-Glo), 1000 to 5000 nM.
`C[C@@H]1CN(c2ccnn3cc(-c4cccc(CC#N)n4)cc23)C(=O)[C@]1(C#N)C1CC1` [Example 125, (3R,4S)-1-(6-(6-(cyanomethyl)pyridin-2-yl)pyrrolo[1,2-b]pyridazin-4-yl)-3-cyclopropyl-4-methyl-2-oxopyrrolidine-3-carbonitrile trifluoroacetate]: the IC50 in experiment [1] (JH1 kinase domain, ADP-Glo) was 100 to 1000 nM; in experiment [2] (JH1 kinase domain, ADP-Glo), 100 to 1000 nM; in experiment [3] (JH1 kinase domain, ADP-Glo), 20 to 50 nM; in experiment [4] (JH1 kinase domain, ADP-Glo) it was 100 to 1000 nM.
On to `Cn1cc(-c2cc3c(N4CC[C@@](C#N)(C5COC5)C4=O)ccnn3c2)cn1` (single isomer, unassigned) [Example 45], for which the IC50 in experiment [1] (JH1 kinase domain, ADP-Glo) was more than 10000 nM; in experiment [2] (JH1 kinase domain, ADP-Glo) it was more than 10000 nM; in experiment [3] (JH1 kinase domain, ADP-Glo) it was more than 100 nM; in experiment [4] (JH1 kinase domain, ADP-Glo), more than 10000 nM.
As to `COc1cnc(-c2cc3c(N4C[C@@H](C)[C@@](C#N)(C5CC5)C4=O)ccnn3c2)cn1` [Example 132, (3R,4S)-3-cyclopropyl-1-(6-(5-methoxypyrazin-2-yl)pyrrolo[1,2-b]pyridazin-4-yl)-4-methyl-2-oxopyrrolidine-3-carbonitrile trifluoroacetate], the IC50 was in the range of 1000 to 5000 nM in experiment [1] (JH1 kinase domain, ADP-Glo); 1000 to 5000 nM in experiment [2] (JH1 kinase domain, ADP-Glo); 50 to 100 nM in experiment [3] (JH1 kinase domain, ADP-Glo); 1000 to 5000 nM in experiment [4] (JH1 kinase domain, ADP-Glo).
On to `CC(=O)Nc1cncc(-c2cn3nccc3c(N3C[C@@H](C)[C@@](C#N)(C4CC4)C3=O)n2)c1` [Example 249, N-(5-(4-((3R,4S)-3-cyano-3-cyclopropyl-4-methyl-2-oxopyrrolidin-1-yl)pyrazolo[1,5-a]pyrazin-6-yl)pyridin-3-yl)acetamide trifluoroacetate], for which the IC50 in experiment [1] (JAK2 JH1, ADP-Glo) is more than 10000 nM; in experiment [2] (JAK3 JH1, ADP-Glo), 5000 to 10000 nM; in experiment [3] (TYK2 JH1, ADP-Glo), more than 100 nM; in experiment [4] (JAK1 JH1, ADP-Glo), more than 10000 nM.
For `C[C@@H]1CN(c2ccnn3cc(-c4cncnc4)cc23)C(=O)[C@]1(C#N)C1CC1` [Example 92, (3R,4S)-3-cyclopropyl-4-methyl-2-oxo-1-(6-(pyrimidin-5-yl)pyrrolo[1,2-b]pyridazin-4-yl)pyrrolidine-3-carbonitrile], the IC50 in experiment [1] (JH1 kinase domain, ADP-Glo) fell in the range of 5000 to 10000 nM; in experiment [2] (JH1 kinase domain, ADP-Glo) it was 1000 to 5000 nM; in experiment [3] (JH1 kinase domain, ADP-Glo), 50 to 100 nM; in experiment [4] (JH1 kinase domain, ADP-Glo) it was 1000 to 5000 nM.

Values taken from patent publication US20260297085A1, “1 H-PYRROLO[2,3-B]PYRIDIN-4-YL]-2-OXOPYRROLIDINE-3-CARBONITRILE DERIVATIVES AS TYROSINE KINASE 2 (TYK2) INHIBITORS FOR THE TREATMENT OF INFLAMMATORY DISEASES” (BIOGEN MA INC., priority 2023, published 2026).
